Source: paper PMC5333415, “Enhancement of scutellarin oral delivery efficacy by vitamin B12-modified amphiphilic chitosan derivatives to treat type II diabetes induced-retinopathy” (Journal of Nanobiotechnology, 2017)
In brackets after ≈: the same amount, converted by molar mass. Read-outs that look alike come from different tables or passages of the source.

Key:
VEGFR2 = assay: Western blot of retinal homogenates, VEGFR2; assay type: in vivo, Sprague–Dawley rats; details: diabetic rats, 40 mg/kg/day scutellarin, 8 weeks, compared to diabetic rats treated with or without Chit-DC
Method: (§1) Type 2 diabetes was induced in male Sprague–Dawley rats (weighing 230–250 g, Experimental Animal Center of Sun Yat-sen University, China. Certificate No: SCXK (Q) 2011-0029). All animals were housed five per cage in a room and maintained at a constant temperature (22 °C) under a 12/12 h light/dark cycle. All procedures were carried out according to the National Institutes of Health Guide for Care and Use of Laboratory Animals and were approved by the Bioethics Committee of Sun Yat-sen University. Rats were randomly assigned to a control group, a Scu group (normal rats with 40 mg/kg/day scutellarin treatments), and five type II diabetes model groups (n = 8/group). The control and Scu groups were fed for 16 weeks on regular standard diets, while rats from type II diabetes model groups (T2D) were fed a high-fat (HFS, Guangdong Medical Laboratory Animal Center, Guangzhou, China) diet for 16 weeks that consisted of 30% from total kcal from fats, 55% from carbohydrates and 15% from protein. […] Blood glucose and body weight were monitored 3 days after the STZ or citrate buffer injection, and once a week thereafter. […]

[1] = tested on: central retinal artery of type II diabetic rats; assay: Color Doppler sonography of central retinal vasculature, type 2 diabetic model; assay type: in vivo, Sprague–Dawley rats; details: 40 mg/kg/day scutellarin
Method: Type 2 diabetes was induced in male Sprague–Dawley rats (weighing 230–250 g, Experimental Animal Center of Sun Yat-sen University, China. Certificate No: SCXK (Q) 2011-0029). All animals were housed five per cage in a room and maintained at a constant temperature (22 °C) under a 12/12 h light/dark cycle. All procedures were carried out according to the National Institutes of Health Guide for Care and Use of Laboratory Animals and were approved by the Bioethics Committee of Sun Yat-sen University. Rats were randomly assigned to a control group, a Scu group (normal rats with 40 mg/kg/day scutellarin treatments), and five type II diabetes model groups (n = 8/group). The control and Scu groups were fed for 16 weeks on regular standard diets, while rats from type II diabetes model groups (T2D) were fed a high-fat (HFS, Guangdong Medical Laboratory Animal Center, Guangzhou, China) diet for 16 weeks that consisted of 30% from total kcal from fats, 55% from carbohydrates and 15% from protein. After 8 weeks on the HFS diet, rats in the T2D groups were fasted overnight and each rat received a single intraperitoneal injection of streptozotocin (STZ, Sigma, USA) at a dose of 30 mg/kg body weight the following morning while the rats in the control group were injected with an equal volume of citrate buffer. The STZ was freshly diluted in citrate buffer (0.1 mol/l, pH 4.0). After the injection, the HFS diet feeding was continued. Blood glucose and body weight were monitored 3 days after the STZ or citrate buffer injection, and once a week thereafter. […]
Prior to sacrifice, all rats were anesthetized and color Doppler sonography analysis of the right eye was performed. […] At least three measurements were recorded for each animal and the mean of the three readings was taken as the representative value. The resistivity index (RI) of the central retinal artery (CRA) was calculated by subtracting the diastolic velocity (DV) from the peak systolic velocity (SV) and then dividing by the systolic velocity [(SV − DV)/SV] […]

[2] = tested on: membranes over expressing several common transporters; design: method as in PMID 27586020; details: cited from earlier work
Solubility = assay type: physicochemical
Caco-2 cell monolayers = assay: Caco-2 cell permeability (AP to BL transport); assay type: in vitro ADME, human; details: estimated from Papp based on the previous research
Method: (§2) Caco-2 cells were seeded in 12-well transport inserts at a density of 2 × 10^5 cells/cm^2 in DMEM. Cells were maintained at 37 °C in a humidified atmosphere containing 5% CO2 for 21 days. Monolayers with transendothelial electrical resistance values above 300 Ω cm^2 were used in this study. On the day of the transport experiments, the culture medium was replaced with hank’s balanced salt solution (HBSS). Before the assay, Caco-2 cells monolayers was rinsed twice and incubated with the transport medium for an hour. After removing the transport medium, scutellarin, Chit-DC-Scu, Chit-DC-VB12-Scu (10 μg/ml scutellarin) alone or in the presence of IF ([…], 20 μl of a 100 IU/ml solution) were add to the apical side (0.5 ml) and 1.5 ml DMEM was added to the basolateral side of Transwell inserts. Cells were maintained at 37 °C in a humidified atmosphere containing 5% CO2 with orbital shaking at 50 rpm throughout the assay. At pre-determined intervals of 0, 30, 60, 90 and 120 min, 50 μl of transport buffer at the basolateral side was collected and mixed with the same volume of methanol, and an equal amount of DMEM was instantly added to the basolateral side to maintain a constant dissolution volume. The assay was performed in triplicate. Concentrations of scutellarin, Chit-DC-Scu and Chit-DC-VB12-Scu in corresponding samples were assessed by HPLC [35, 36].

[3] = Caco-2 cell permeability (AP to BL transport); assay type: in vitro ADME, human; details: human; Caco-2 monolayers, 10 μg/ml scutellarin, without IF; read-out: Papp, AP side to BL side
Method: as §2

[4] = cited from earlier work
[5] = tested on: retina of type II diabetic rats; assay: Retinal histopathology (hematoxylin and eosin), type 2 diabetic model; assay type: in vivo, Sprague–Dawley rats; details: 40 mg/kg/day scutellarin
Method: as §1

VEGF = assay: Western blot of retinal homogenates, VEGF; assay type: in vivo, Sprague–Dawley rats; details: diabetic rats, 40 mg/kg/day scutellarin, 8 weeks, compared to diabetic rats treated with or without Chit-DC
Method: as §1

[6] = Pharmacokinetics study in vivo, single oral dose; details: male, Sprague-Dawley, rat, rats, oral gavage, scutellarin dose 40 mg/kg, n = 6, mean ± SD; for half-life: plasma, po, 40 mg/kg
Method: Male Sprague–Dawley rats (weighing 220–250 g) were fasted for 12 h, but allowed water ad libitum the day before drug administration. Scutellarin, Chit-DC-Scu, and Chit-DC-VB12-Scu were resuspended in PBS and administered to rats (at the same scutellarin dose of 40 mg/kg) by oral gavage. Blood samples (0.2 ml) were collected from the tail vein of each rat before dosing and at 0.25, 0.5, 0.75, 1, 2, 3, 5, 8, 12, 24 h post-dosing. An equal volume of 0.9% saline solution was injected after each collection. Plasma samples were obtained by centrifugation at 10,000 rpm for 10 min immediately after blood collection and were stored at −20 °C until analysis. HPLC (Agilent 1100, USA) was used to determine the concentration of scutellarin in plasma.

vWF = assay: Western blot of retinal homogenates, vWF; assay type: in vivo, Sprague–Dawley rats; details: diabetic rats, 40 mg/kg/day scutellarin, 8 weeks, compared to diabetic rats treated with or without Chit-DC
Method: as §1

[7] = T2D rats, intragastric, 8 weeks, compared to DM rats

Row | SMILES | expression of VEGFR2 in the retina (VEGFR2) | retinal blood flow velocity [1, 7] | retinal resistivity index (RI) [1, 7] | blood flow velocity or RI in normal rats ([1]; normal (non-diabetic) rats) | increase of Papp(AP-BL) [2] [fold] | solubility in distilled water (Solubility; distilled water) | solubility in methanol and PBS solution (Solubility; methanol and PBS solution (pH7.2)) | scutellarin absorbed by the small intestine (Caco-2 cell monolayers) | Papp at 120 min, 10 μg/ml [3] [×10⁻⁶ cm/s] | water solubility [4] [mg/mL] | retinal morphology (HE staining) in normal rats [5] | expression of VEGF in the retina (VEGF) | half-life ([6]; read-out: T1/2(α) (converted)) [min] | half-life ([6]; read-out: T1/2(β) (converted)) [min] | Cmax ([6]; plasma scutellarin) [ng/mL] | Tmax ([6]; plasma scutellarin) [h] | expression of vWF in the retina (vWF) | water solubility of triamcinolone acetonide acetate ([4]; free drug versus loaded in deoxycholic acid-modified chitosan nanoparticles) [mg/mL]
1 | O=C(O)[C@H]1O[C@@H](Oc2cc3oc(-c4ccc(O)cc4)cc(=O)c3c(O)c2O)[C@H](O)[C@@H](O)[C@@H]1O [Scu, 4′,5,6-trihydroxyflavone-7-O-glucuronide] | downregulated | increased blood flow velocities | reduced retinal RI values | No significant changes in blood flow velocity or RI | 3.5 | poorly dissolved | soluble | about 1% | 0.32 | 0.16 (≈ 346 µM) | continuous with normal capillary structure | downregulated | 24.3 ± 3.3 | 113 ± 6.3 | 129 ± 85.5 | 1.24 ± 0.025 | downregulated | 
2 | CC(=O)OCC(=O)[C@@]12OC(C)(C)O[C@@H]1C[C@H]1[C@@H]3CCC4=CC(=O)C=C[C@]4(C)[C@@]3(F)[C@@H](O)C[C@@]12C [triamcinolone acetonide acetate] |  |  |  |  |  |  |  |  |  |  |  |  |  |  |  |  |  | 0.3
